In US20120071475A1, “UREA DERIVATIVES HAVING PI3K-INHIBITING ACTIVITY” (SHIONOGI & CO., LTD., priority 2009, published 2012):

Legend:
PI3Kγ = PI3Kγ (Homo sapiens, UniProt P48736); test: PI3Kγ inhibitory activity (PI3-kinase HTRF assay, inhibition ratio); type: biochemical; conditions: compound at 10 μmol/L; for inhibition at 10 µM: 0.5 h, read-out: PI3Kg Inhibition Ratio % (10 μM)
Procedure, shortened: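 Compound at 10 μmol/L preincubated 10 min with PI3Kγ and PIP2 substrate, then reacted with ATP for 30 minutes at room temperature; the compound, substrate and ATP figures as printed (40 μmol/L each) are solution concentrations. HTRF 665/620 nm ratio read after 18 hours. Inhibition ratio calculated against no-compound (100%) and no-enzyme (0%) controls.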

AKT phosphorylation = AKT phosphorylation inhibitory activity in MCP-1 stimulated THP-1 cells (sandwich ELISA); type: cell-based, Human; conditions: compound at 1 μmol/L, MCP-1 stimulation; for inhibition at 1 µM: Homo sapiens, read-out: AKT phosphorylation inhibition ratio
Procedure, shortened: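 THP-1 cells (6.7×10^6/mL in HBSS) were preincubated with compound at 1 μmol/L for 5 min at 37 °C, then stimulated for 60 s with HBSS containing 1.2 μg/mL MCP-1 and lysed. Phospho-Akt Ser473/AKT1 sandwich ELISA was read at A450. % inhibition: no compound = 100% activity, no MCP-1 = 0%.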

CYP3A4 = molecular target: T1, CYP3A4 (Homo sapiens, UniProt P08684); test: CYP3A4 fluorescence MBI test; type: in vitro ADME; conditions: difference in IC50 with 0 or 30 minutes pre-reaction; CYP3A4 expressed in E. coli, substrate 7-BFC
T1 construct: host or cells: E. coli
T1 sequence (P08684 whole entry): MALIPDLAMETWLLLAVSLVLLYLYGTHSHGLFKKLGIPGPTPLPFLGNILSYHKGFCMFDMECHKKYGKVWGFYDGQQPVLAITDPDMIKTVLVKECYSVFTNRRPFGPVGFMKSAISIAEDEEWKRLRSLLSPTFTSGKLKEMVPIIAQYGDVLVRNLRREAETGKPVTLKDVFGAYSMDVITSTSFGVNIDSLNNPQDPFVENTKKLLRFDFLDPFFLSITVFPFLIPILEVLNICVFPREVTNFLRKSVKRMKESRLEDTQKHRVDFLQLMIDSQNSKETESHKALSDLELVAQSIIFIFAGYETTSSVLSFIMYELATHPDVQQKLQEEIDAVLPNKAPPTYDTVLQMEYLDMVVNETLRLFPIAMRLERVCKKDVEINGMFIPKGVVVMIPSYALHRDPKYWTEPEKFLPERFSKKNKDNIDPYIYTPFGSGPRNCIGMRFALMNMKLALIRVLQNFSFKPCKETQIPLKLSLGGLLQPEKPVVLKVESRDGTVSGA
Procedure, shortened: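 E. coli-expressed CYP3A4 debenzylating 5.6 μmol/L 7-BFC to fluorescent 7-HFC (Ex 420/Em 535 nm) in K-Pi pH 7.4 at 25° C, 15 min reaction. NADPH pre-incubation of 0 or 30 min, with 10-fold dilution before reaction. IC50 from 0.625–20 μmol/L (6 points); (+) for an IC50 shift ≥5 μmol/L, (−) for ≤3 μmol/L.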

Chain of PI3Kγ (P48736 whole entry, species assumed): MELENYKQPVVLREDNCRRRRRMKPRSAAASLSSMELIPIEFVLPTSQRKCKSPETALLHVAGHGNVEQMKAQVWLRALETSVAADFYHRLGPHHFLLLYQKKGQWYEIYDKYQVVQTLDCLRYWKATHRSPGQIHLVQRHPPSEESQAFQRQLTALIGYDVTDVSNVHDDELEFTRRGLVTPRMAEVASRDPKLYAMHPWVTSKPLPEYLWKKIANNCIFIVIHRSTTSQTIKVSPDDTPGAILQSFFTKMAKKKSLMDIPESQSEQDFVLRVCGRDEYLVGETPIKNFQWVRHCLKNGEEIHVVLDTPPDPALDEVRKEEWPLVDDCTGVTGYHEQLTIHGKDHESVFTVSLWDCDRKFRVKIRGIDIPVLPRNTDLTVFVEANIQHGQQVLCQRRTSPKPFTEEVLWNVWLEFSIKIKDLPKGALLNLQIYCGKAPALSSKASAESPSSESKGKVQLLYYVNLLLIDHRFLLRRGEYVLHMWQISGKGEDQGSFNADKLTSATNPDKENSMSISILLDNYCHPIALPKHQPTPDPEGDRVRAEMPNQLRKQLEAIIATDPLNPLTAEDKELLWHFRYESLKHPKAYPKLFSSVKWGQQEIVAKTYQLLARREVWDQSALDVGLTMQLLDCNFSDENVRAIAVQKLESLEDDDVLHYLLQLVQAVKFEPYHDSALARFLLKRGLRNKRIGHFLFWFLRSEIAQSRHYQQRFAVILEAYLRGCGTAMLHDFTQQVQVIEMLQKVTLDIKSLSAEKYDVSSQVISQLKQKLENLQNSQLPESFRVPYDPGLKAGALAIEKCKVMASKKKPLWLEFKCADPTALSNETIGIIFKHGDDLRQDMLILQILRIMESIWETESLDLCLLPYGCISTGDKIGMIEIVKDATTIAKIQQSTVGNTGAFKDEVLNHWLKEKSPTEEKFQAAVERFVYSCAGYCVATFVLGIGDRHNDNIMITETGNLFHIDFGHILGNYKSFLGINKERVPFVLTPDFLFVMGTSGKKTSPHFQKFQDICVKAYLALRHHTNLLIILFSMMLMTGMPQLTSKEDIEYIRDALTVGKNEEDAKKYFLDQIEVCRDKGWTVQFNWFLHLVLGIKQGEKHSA

Row | Structure (SMILES) | inhibition at 10 µM (PI3Kγ) | PI3Kg Inhibition Ratio % (10 μM) (PI3Kγ) | inhibition at 1 µM (AKT phosphorylation) | MBI (CYP3A4) | AKT phosphorylation inhibition ratio (AKT phosphorylation)
1 | COc1cc(N2CCc3nc(NC(=O)Nc4ccccc4C(=O)NC(C)C)sc3C2)nc(OC)n1 [Compound I-12] | 94% | – | ≥ 95% | (−) (When 3 μmol/L or less, the compound is shown as (−)) | –
2 | COc1cc(N2CCc3nc(NC(=O)Nc4ccccc4C(=O)NCCF)sc3C2)nc(OC)n1 [Compound I-88] | ≥ 95% | – | 87.3% | (−) (When 3 μmol/L or less, the compound is shown as (−)) | –
3 | COc1cc(N2CCc3nc(NC(=O)Nc4ccccc4C(=O)NC(C)C(O)C(F)(F)F)sc3C2)nc(OC)n1 (stereo not shown) [Compound I-139] | – | ≧95% | – | (−) (When 3 μmol/L or less, the compound is shown as (−)) | ≥ 95%
4 | COc1nc(Cl)cc(N2CCc3nc(NC(=O)Nc4cnccc4C(=O)NC(C)C)sc3C2)n1 [Compound I-91] | ≥ 95% | – | 94.7% | (−) (When 3 μmol/L or less, the compound is shown as (−)) | –
5 | Cc1nc(NC(=O)Nc2ccccc2C(=O)NC(C)C)sc1-c1ccc(S(C)(=O)=O)c(F)c1 [Compound I-127] | ≥ 95% | – | 77.7% | – | –
6 | COc1cc(N2CCc3nc(NC(=O)Nc4cn(C)nc4C(=O)NCC(F)(F)F)sc3C2)nc(OC)n1 [Compound I-148] | 90% | – | ≥ 95% | – | –
7 | CC(C)NC(=O)c1ccccc1NC(=O)Nc1nc2c(s1)CN(c1cncc(C(F)(F)F)c1)CC2 [Compound I-131] | 78% | – | 84% | (−) (When 3 μmol/L or less, the compound is shown as (−)) | –
8 | COc1cncc(-c2ccc3nc(NC(=O)Nc4ccccc4OCCC(C)C)cn3n2)c1 [Compound I-114] | – | – | 64.9% | (−) (When 3 μmol/L or less, the compound is shown as (−)) | –

The next lines start with results.

Row | inhibition at 10 µM (PI3Kγ) | PI3Kg Inhibition Ratio % (10 μM) (PI3Kγ) | Structure (SMILES) | inhibition at 1 µM (AKT phosphorylation) | MBI (CYP3A4) | AKT phosphorylation inhibition ratio (AKT phosphorylation)
9 | 87% | – | Cc1nc(NC(=O)Nc2ccccc2C(=O)NC(C)C)sc1-c1csc(S(=O)(=O)N(C)CCN(C)C)c1 [Compound I-191] | 93% | – | –
10 | 87% | – | C[C@@H](CO)NC(=O)c1ccccc1NC(=O)Nc1nc2c(s1)CN(c1cncc(S(C)(=O)=O)c1)CC2 [Compound I-211] | 85% | (−) (When 3 μmol/L or less, the compound is shown as (−)) | –
11 | 93% | – | COc1cncc(-c2cc(NC(=O)Nc3ccccc3C(=O)NC(C)C)nn2C)c1 [Compound I-226] | – | (−) (When 3 μmol/L or less, the compound is shown as (−)) | –
12 | ≥ 95% | – | COc1cc(N2CCc3nc(NC(=O)Nc4ccccc4C(=O)NN4CCN(C)CC4)sc3C2)nc(OC)n1 [Compound I-195] | 82% | (−) (When 3 μmol/L or less, the compound is shown as (−)) | –
13 | ≥ 95% | – | CC(C)NC(=O)c1ccccc1NC(=O)Nc1nc2c(s1)CN(c1cccc(S(C)(=O)=O)c1)CC2 [Compound I-198] | 94% | – | –
14 | 91% | – | COc1cc(N2CCc3nc(NC(=O)Nc4ccccc4C(=O)NC4CCOCC4)sc3C2)nc(OC)n1 [Compound I-203] | ≥ 95% | – | –
15 | ≥ 95% | – | COc1nc(Cl)cc(N2CCc3nc(NC(=O)Nc4ccccc4C(=O)NC4CCCOC4)sc3C2)n1 (stereo not shown) [Compound I-197] | 90% | – | –
